Data: PMC5593639, “NSC30049 inhibits Chk1 pathway in 5-FU-resistant CRC bulk and stem cell populations” (Oncotarget, 2017)

How the values were obtained:
HCT116(p53+/+) cells = test: MTT assay, IC50 of HU, HCT116(p53+/+); type: cell-based, human; details: HU combined with NSC49L, 72 h
Method: (§1) The survival of cells was determined by MTT (3-(4,5-Dimethylthiazol-2yl-)-2,5-diphenyl tetrazolium bromide) assay (ATCC, Manassas, VA, USA). In principle, the viable cell number is directly proportional to the purple formazan color of the reduced MTT dye, which can be quantitatively measured by spectrophotometry. Briefly, 1,500 cells were plated in quadruplets in 96-well flat-bottom tissue culture plates. After treatment with compounds for certain periods as described in respective figure legends, 10 μl of MTT reagent was added to each well and incubated at 37°C for 4 h to allow the formation of purple color crystals of formazan. In total, 100 μl of detergent solution was added to each well, and the reaction mixture was incubated in dark for 2–4 h at room temperature. The developed color density was then measured spectrophotometrically at 570 nm using the POLARstar Omega micro-plate reader (BMG Labtech, Inc., Cary, NC, USA).

[1] = tested on: γH2AX(S139P)-foci in HCoEpiC cells; test: γH2AX(S139P)-foci IHC staining, HCoEpiC; type: cell-based, human; details: NSC49L alone or in combination with 5-FU, 24 h
RKO cells = test: Cell survival (MTT assay), RKO; type: cell-based; details: Homo sapiens, drug alone, 48 h
Method: as §1

[2] = tested on: FOLFOX-resistant-HCT116 cells; test: Cell survival (MTT assay), FOLFOX-resistant-HCT116; type: cell-based; details: Homo sapiens, FOLFOX-resistant HCT-116, 48 h
Method: In some experiments, 5-FU, leucovorin and oxaliplatin (FOLFOX)-resistant-HCT-116 and FOLFOX-resistant-HT29 cells were used. These cells were obtained from Dr. Adhip P. Majumdar (John D. Dingell VA Medical Center, Detroit, MI). These cells were generated by exposure to clinically relevant doses and schedules. The exposing schedule was for 12 cycles; each cycle lasted for one week. Briefly, the cells were first exposed to FOLFOX (25 μM 5-FU and 0.625 μM oxaliplatin) for 72 hours. The surviving cells were then cultured in normal medium without the drugs for 4 to 5 days. This cycle was repeated 12 times. The surviving cells were then split and exposed to higher doses of FOLFOX (50 μM 5-FU + 1.25 μM oxaliplatin or 100 μM 5-FU + 2.5 μM oxaliplatin) for 2 to 3 days per week for approximately 4 weeks. […]
The survival of cells was determined by MTT (3-(4,5-Dimethylthiazol-2yl-)-2,5-diphenyl tetrazolium bromide) assay (ATCC, Manassas, VA, USA). In principle, the viable cell number is directly proportional to the purple formazan color of the reduced MTT dye, which can be quantitatively measured by spectrophotometry. […] The developed color density was then measured spectrophotometrically at 570 nm using the POLARstar Omega micro-plate reader (BMG Labtech, Inc., Cary, NC, USA).

HCT116(p53−/−) cells = test: MTT assay, IC50 of HU, HCT116(p53−/−); type: cell-based, human; details: HU combined with NSC49L, 72 h
Method: as §1

[3] = Maximum tolerated dose and pathological analysis of organs; type: in vivo, male SCID mice
Method: We have determined the MTD of NSC49L from male homozygous CB17 scid/scid (SCID) mice obtained from Tacomic Farms (Germantown, NY, USA). The mice were treated subcutaneously at 25, 50, and 75 mg/kg body weight for 5 consecutive days followed by observation for an additional 7 days. Every day body weight was recorded and behavioral changes were monitored in the treated versus control animals. After the 7th day animals were sacrificed and the organs from the mice treated at 75 mg/kg body weight were processed for pathological examination. Different organs were fixed in 10% buffered formalin, then sectioned and processed into paraffin blocks. Tissue sections were cut 4–5 μm thick and stained with hematoxylin and eosin. Histologic differences between control (A) and treated (B) mice were recorded and photomicrographs were taken with Olympus, BX41 microscope with attached camera.

SW480 cells = test: Cell survival (MTT assay), SW480; type: cell-based; details: Homo sapiens, drug alone, 48 h
Method: as §1

[4] = tested on: Chk1 phosphorylation in CA2 cells; test: Western blot of total and phosphorylated Chk1, CA2; type: cell-based, human; details: NSC49L alone, 24 h
Method: (§2) The levels of various proteins were determined by Western blot analysis with our previously described procedure. The antibodies for phospho-Chk1(Ser317), phospho-Chk1(Ser317), phospho-Chk1(Ser319), phospho-Chk1(Ser345), Chk1, and GAPDH were purchased from Cell Signaling Technology (Danvers, MA, USA).

[5] = tested on: γH2AX(S139P)-foci in HCT-116 cells; test: γH2AX(S139P)-foci IHC staining, HCT-116; type: cell-based, human; details: 24 h
[6] = tested on: ALDH1, KLF4, Nanog, Oct4, Sox2, c-Myc mRNA in CA2 cells; test: Stem cell marker and self-renewal gene mRNA levels by qRT-PCR; type: cell-based, human; details: 72 h
Method: Total RNA was isolated from control and treated cells with RNAzol reagent (Invitogen, Carlsbad, CA, USA). The expression of mRNA levels of stemness genes was determined by qRT-PCR using Bio-Rad CFX96 Real Time System C1000 Thermal Cycler. The primers used for amplification of mRNA levels of genes were from Celprogen, Inc., as shown here with their Gene Bank accession and catalog numbers: ALDHA1 (NM_000689, Cat. No. CepALDHA1-02), Klf4 (NM_004235, Cat No. CepKlf4-02), Nanog (NM_024865, Cat. No. CepNanog-02), Oct4 (NM_002701, Cat No. CepOct4-02), Sox2 (NM_003106, Cat. No. CepSox2-02), c-Myc (NM_002467, Cat. No. Cepc-Myc-02) and GAPDH (NM_002046, Cat. No. Cep-GAPDH-02).

[7] = tested on: Chk1 phosphorylation in HT29 cells; test: Western blot of total and phosphorylated Chk1, HT29; type: cell-based, human
Method: as §2

[8] = tested on: Chk1 phosphorylation in HCT-116 cells; test: Western blot of total and phosphorylated Chk1, HCT-116; type: cell-based, human; details: NSC49L alone, 24 h
Method: as §2

LS174T cells = test: Cell survival (MTT assay), LS174T; type: cell-based; details: Homo sapiens, drug alone, 48 h
Method: as §1

[9] = 2 mM HU 24 h, then NSC49L 5, 10, 20 μM additional 8 h

SMILES: ClC/C=C/C[N+]12CN3CN(CN(C3)C1)C2 [NSC49L]
- IC50 of HU (HCT116(p53+/+) cells): further decreased
- replication stress-mediated DNA damage (γH2AX(S139P)-foci) [1]: no effect
- IC50 (RKO cells): 4.9 ± 0.4 µM
- IC50 [2]: 5.4 µM
- IC50 of HU (HCT116(p53−/−) cells): further decreased
- Histologic sections of organs ([3]; 75 mg/kg body weight, bone marrow, brain, kidney, liver, lung, pancreas): no significant differences between control and treated mice
- Body weight, behavior, pathological abnormalities ([3]; 25, 50 and 75 mg/kg body weight, 5 consecutive days, 7 days observation, treated versus control): no change in body weight, behavior, or pathological abnormalities
- IC50 (SW480 cells): 4.4 ± 0.2 µM
- Chk1(S317P) and Chk1(S296P) levels [4]: very little change
- Chk1(S345P) level [4]: increase in a dose-dependent manner
- γH2AX(S139P)-foci ([5]; NSC49L alone): increased
- γH2AX(S139P)-foci ([5]; NSC49L in combination with 5-FU): further increased
- mRNA levels of ALDH1, KLF4 and Nanog ([6]; NSC49L combined with 5-FU): further decreased
- mRNA levels of ALDH1, KLF4, Nanog, Oct4, Sox2 and c-Myc ([6]; drug alone, normalized with GAPDH): decreased
- Chk1(S296P) levels [7, 9]: increased at low concentrations of NSC49L (5 μM), but decreased at 10 and 20 μM concentrations
- Chk1(S317P) level [7, 9]: decreased in a dose-dependent manner
- Chk1(S345P) level ([7]; 2 mM HU 24 h, then NSC49L additional 8 h): increased above the HU treatment level in a dose-dependent manner
- Chk1 phosphorylation ([7]; NSC49L alone, 8 h): did not show any significant effect
- Chk1(S317P) and Chk1(S296P) levels [8]: no effect
- Chk1(S345P) levels [8]: dose-dependent increase
- IC50 (LS174T cells): 4.6 ± 0.8 µM
